Reference: article PMC9161444, “In-Membrane Nanostructuring of Cationic Amphiphiles Affects Their Antimicrobial Efficacy and Cytotoxicity: A Comparison Study between a De Novo Antimicrobial Lipopeptide and Traditional Biocides” (Langmuir, 2022)
Values joined by “and” are separate entries in the source; they are usually repeats but may differ in a detail not shown here. Equal values may be shown once. Read-outs that look alike come from different tables or passages of the source.

Experiments:
[1] = test system: Human dermal fibroblasts cells (adult, HDFa cells); assay type: cell-based; details: MTT assay, 24 h exposure, 37 °C, absorbance 570 nm, sigmoidal fit; ± SD, at least three replicates; read-out: EC50, HDFa
Experimental: (§1) Human dermal fibroblasts cells (adult, HDFa cells) and NIH 3T3 fibroblasts cells (3T3 cells, ATCC-1658) were cultured at 37 °C in Dulbecco’s modified Eagle medium (ATCC30-2002, added with 10% heat-inactivated fetal bovine serum) with a continuous supply of CO2 at a 5% level. MTT assays were carried out to examine in vitro cytotoxicity of the amphiphiles.[22] Cells were first inoculated in flat-bottom 96-well plates, rendering 8 × 10^3 cells in 100 μL of medium for each well, and were incubated for 24 h. The cells were mixed with 100 μL of a solution of an amphiphile with 2 times the selected concentrations. Cells were then exposed to the solutions of each amphiphile for 24 h, after which 10 μL of 5 mg/mL MTT solution was added into each well, and the reaction was allowed for 2 h. 200 μL of dimethyl sulfoxide was then added to each well to dissolve the transformed MTT formazan. Light absorbance of the samples was measured using a Thermo Scientific Varioskan LUX at 570 nm. Cell samples 100% viable and 100% dead were employed as the positive control and negative control, respectively. Dose response curves were obtained by applying sigmoidal function fittings to obtain 50% effective concentrations (EC50).

[2] = test system: NIH 3T3 fibroblasts cells (3T3 cells, ATCC-1658); assay type: cell-based; details: MTT assay, 24 h exposure, 37 °C, absorbance 570 nm, sigmoidal fit; ± SD, at least three replicates; read-out: EC50, NIH/3T3
Experimental: as §1

[3] = Fluorescein (CF) leakage from SUVs; details: for threshold concentration of fast leakage increase, PC/PG SUVs: end of the low leakage induction range; for concentration for 20% leakage, PC/Chol. vesicles / concentration for 20% leakage, PC/PG vesicles / concentration for 100% leakage, PC/Chol. vesicles / concentration for 100% leakage, PC/PG vesicles / concentration for minimal leakage, PC/Chol. vesicles / concentration for minimal leakage, PC/PG vesicles / EC50: CF-SUVs 0.25 mg/mL in TBS pH 7.2, fluorescence ex 480/em 520 nm, read from Figure 5
Experimental: Lipid SUVs with single or multiple components were used to model different biomembranes. In this work, two lipid mixtures with different surface charges were used to mimic bacterial inner membranes with the molar ratio of POPC/POPG of 7:3 and mammalian cytoplasmic cell membranes with a molar ratio of POPC/cholesterol of 1:1. Lipids (or cholesterol) were dissolved and mixed in chloroform, and then, the solvent was removed via evaporation and lyophilization. Dry lipids were dissolved in Tris buffered saline (TBS, containing 10 mM Tris-HCl and 154 mM NaCl, with a final pH of 7.2) and were fully dispersed via sonication. After five freeze/thaw loops of the lipid solution, SUVs were prepared by extruding 31 times using an Avanti Polar Lipids mini extruder. SUV solutions were diluted to 0.5 mg/ml for further use.
Concentration effects of the binding of amphiphiles to lipid SUVs were examined by means of fluorescein leakage. 5(6)-Carboxyfluorescein (CF)-entrapped SUVs (CF-SUVs) were prepared as described previously,[26] except that dried lipids were dissolved into 40 mM TBS solution of CF before the freeze/thaw loop. After extrusion, CF-SUVs were separated from unentrapped fluorescein molecules using a Sephadex G50 chromatography column. Amphiphile solutions of various concentrations were then blended in a 1:1 ratio with CF-SUVs, giving a mixture of amphiphiles of the desired concentration and CF-SUVs of concentration 0.25 mg/mL. A Thermo Scientific Varioskan LUX was employed to determine the amount of released CF in each sample by measuring their emission intensity I520, with an excitation wavelength of 480 nm and an emission wavelength of 520 nm. CF-SUVs alone and with added 0.2% Triton-X were measured as positive and negative controls (I+ and I–), respectively. The percentage of leakage L for each sample was calculated using Ln = (In,520 – I+)/(I– – I+) × 100%.

[4] = read-out: concentration for 50% leakage, PC/Chol. vesicles
[5] = read-out: concentration for 50% leakage, PC/PG vesicles

SMILES | EC50 [1] [µM] | EC50 [2] [µM] | concentration above which fast leakage was induced, PC/chol SUVs ([3]; CF leakage, end of the low leakage induction period) [µM] | threshold concentration of fast leakage increase, PC/PG SUVs ([3]; CF leakage) [µM] | concentration for 20% leakage, PC/Chol. vesicles [3] [µM] | concentration for 20% leakage, PC/PG vesicles [3] [µM] | concentration for 100% leakage, PC/Chol. vesicles [3] [µM] | concentration for 100% leakage, PC/PG vesicles [3] | concentration for minimal leakage, PC/Chol. vesicles [3] | concentration for minimal leakage, PC/PG vesicles [3] | EC50 [3, 4] [µM] | EC50 [3, 5] [µM] | leakage, PC/PG SUVs ([3]; at 256 μM) [%] | leakage, PC/PG SUVs ([3]; from 16 to 75 μM) | maximum leakage, PC/chol SUVs ([3]; at 100 μM and above) [%]
CCCCCCCCCCCC[N+](C)(C)C.[Br-] [C12TAB, dodecyltrimethylammonium bromide] | 17 ± 5 | 12 ± 4 | ~70 | 75 | 500 | 125 | >2000 | above 1000 μM and 1000 μM | 10 µM | around 16 μM and 75 μM | 2000 | 256 | 60 | less than 10% | –
CCCCCCCCCCCCCC[N+](C)(C)C.[Br-] [C14TAB, tetradecyltrimethylammonium bromide] | 7 ± 3 | 3 ± 1 | – | 16 | 10 | 30 | >500 | 500 µM | around 4 μM | 4 µM | 100 | 50 | – | – | 50
